Target: WT EZH2 (EZH2 4 protein complex: EZH2, EED, SUZ12, RbAp48) (Homo sapiens, UniProt O75530+Q09028+Q15022+Q15910)
Assay: WT EZH2 nucleosome assay
Assay type: biochemical
Details: nucleosome assay, 5 nM EZH2 4-protein complex, 1.5 μM SAM; read-out: WT EZH2 IC50
Protocol: Nucleosome Assay Protocol:
A. Compound preparation • 1. Prepare 10 mM stock solutions in 100% DMSO from solid material • 2. Serial dilute 10 mM compound stocks either 2 or 3-fold in 100% DMSO to generate compounds for 11 point dose response
B. Reagent preparation • 1. Prepare 1× assay buffer containing 100 mM Tris pH 8.5, 4 mM DTT and 0.01% Tween-20 • 2. Dilute purified HeLA oligonucleosomes and recombinant histone H1 (New England Biolabs) in assay buffer to 1.67×. • 3. Dilute EZH2 4 protein complex (EZH2, EED, SUZ12, RbAp48) to 3.5× in assay buffer • 4. Prepare 10×^3H SAM solution in assay buffer using 0.94 μCi/well of radioactive SAM (Perkin Elmer) and sufficient non-labeled SAM (Sigma) for 1.5 μM final concentration. • 5. Dilute TCA to 20% in DI water
C. Enzyme reaction • 1. Final reaction conditions are 5 nM EZH2 4-protein complex, 1.5 μM SAM, 25 μg/mL oligonucleosomes, 50 nM rH1 in a 50 μl reaction volume. • 2. Add 1 μl of diluted compound to the assay plate (96-well V-bottom polypropylene plates) or 1 μl of DMSO for control wells. • 3. Add 30 μl of nucleosomes to the assay plate • 4. Add 14 μl of EZH2 4 protein complex to the assay plate • 5. Add 5 μl of ^3H SAM to start the reaction. • 6. Stop the reaction after 60 minutes with the addition of 100 μl of 20% TCA • 7. Transfer 150 μl of quenched reaction into a prepared filterplate (Millipore #MSIPN4B10) • 8. Apply vacuum to the filterplate to filter the reaction mix through the membrane. • 9. Wash the filterplate with 8×200 μl of PBS, blot dry and dry in an oven for 30 minutes • 10. Add 50 μl of microscint-20 scintillation fluid (Perkin Elmer) to each well, wait 30 minutes and count on a liquid scintillation counter.
D. Data analysis • 1. IC50 values were determined by fitting the data to a 4-parameter IC50 equation using proprietary curve fitting software.
Wild type (WT) EZH2% Effect at 20 μM and IC50 values (μM) generated in WT EZH2 or EZH2PRC2 mutant Y641N nucleosome assays are provided in Table 3 below. A blank entry in the table indicates the data was not generated in that assay.

Chain of WT EZH2 (EZH2 4 protein complex: EZH2, EED, SUZ12, RbAp48) (Q15910 whole entry): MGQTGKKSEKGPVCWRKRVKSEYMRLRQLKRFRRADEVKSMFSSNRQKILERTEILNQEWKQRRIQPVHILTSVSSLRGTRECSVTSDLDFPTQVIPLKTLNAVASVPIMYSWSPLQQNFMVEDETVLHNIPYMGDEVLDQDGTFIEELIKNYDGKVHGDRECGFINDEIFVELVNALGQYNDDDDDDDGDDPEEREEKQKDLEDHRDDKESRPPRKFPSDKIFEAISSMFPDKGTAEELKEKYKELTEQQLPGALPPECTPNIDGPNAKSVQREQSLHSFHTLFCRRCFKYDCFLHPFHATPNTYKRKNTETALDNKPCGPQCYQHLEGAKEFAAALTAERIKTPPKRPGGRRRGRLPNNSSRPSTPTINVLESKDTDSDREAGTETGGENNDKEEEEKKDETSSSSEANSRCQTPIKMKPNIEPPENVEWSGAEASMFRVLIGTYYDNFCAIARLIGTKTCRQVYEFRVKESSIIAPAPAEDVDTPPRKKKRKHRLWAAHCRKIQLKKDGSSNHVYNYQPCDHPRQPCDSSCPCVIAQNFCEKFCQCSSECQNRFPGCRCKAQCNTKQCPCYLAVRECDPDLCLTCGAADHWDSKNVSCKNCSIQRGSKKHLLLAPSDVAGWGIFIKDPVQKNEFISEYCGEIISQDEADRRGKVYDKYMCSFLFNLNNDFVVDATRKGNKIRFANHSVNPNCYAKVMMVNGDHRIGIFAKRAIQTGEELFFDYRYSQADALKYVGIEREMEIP
Chain of WT EZH2 (EZH2 4 protein complex: EZH2, EED, SUZ12, RbAp48) (O75530 whole entry partner): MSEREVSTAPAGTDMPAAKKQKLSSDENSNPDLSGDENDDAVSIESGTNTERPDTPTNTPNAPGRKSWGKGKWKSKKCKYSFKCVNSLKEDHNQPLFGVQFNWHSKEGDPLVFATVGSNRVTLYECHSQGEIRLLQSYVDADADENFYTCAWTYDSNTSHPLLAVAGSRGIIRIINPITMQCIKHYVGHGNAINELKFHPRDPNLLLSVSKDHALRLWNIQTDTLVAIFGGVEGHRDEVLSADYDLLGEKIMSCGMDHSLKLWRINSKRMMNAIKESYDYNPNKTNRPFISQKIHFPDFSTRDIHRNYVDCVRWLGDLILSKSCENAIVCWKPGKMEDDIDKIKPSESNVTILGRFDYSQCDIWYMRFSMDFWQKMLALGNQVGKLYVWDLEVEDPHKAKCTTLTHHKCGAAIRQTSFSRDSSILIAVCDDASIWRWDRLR
Chain of WT EZH2 (EZH2 4 protein complex: EZH2, EED, SUZ12, RbAp48) (Q15022 whole entry partner): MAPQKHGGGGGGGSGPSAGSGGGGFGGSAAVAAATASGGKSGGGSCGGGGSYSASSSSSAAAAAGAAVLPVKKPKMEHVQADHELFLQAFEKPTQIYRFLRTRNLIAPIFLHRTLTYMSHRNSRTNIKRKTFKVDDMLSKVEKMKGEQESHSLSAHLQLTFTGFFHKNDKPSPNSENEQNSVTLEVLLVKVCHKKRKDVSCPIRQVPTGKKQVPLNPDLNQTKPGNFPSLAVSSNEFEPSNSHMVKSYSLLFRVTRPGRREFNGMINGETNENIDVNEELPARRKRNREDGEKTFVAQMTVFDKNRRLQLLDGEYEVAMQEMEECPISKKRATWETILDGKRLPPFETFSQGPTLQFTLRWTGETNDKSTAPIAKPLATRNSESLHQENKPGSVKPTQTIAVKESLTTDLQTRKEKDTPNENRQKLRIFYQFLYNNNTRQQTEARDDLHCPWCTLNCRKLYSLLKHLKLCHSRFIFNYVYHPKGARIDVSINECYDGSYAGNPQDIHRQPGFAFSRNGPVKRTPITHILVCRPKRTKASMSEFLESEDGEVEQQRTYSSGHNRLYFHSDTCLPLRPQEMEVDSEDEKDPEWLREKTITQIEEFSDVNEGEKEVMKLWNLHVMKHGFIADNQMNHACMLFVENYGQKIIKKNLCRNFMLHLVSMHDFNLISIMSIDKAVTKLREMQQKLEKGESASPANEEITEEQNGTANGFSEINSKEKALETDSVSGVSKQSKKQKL
Chain of WT EZH2 (EZH2 4 protein complex: EZH2, EED, SUZ12, RbAp48) (Q09028 whole entry partner): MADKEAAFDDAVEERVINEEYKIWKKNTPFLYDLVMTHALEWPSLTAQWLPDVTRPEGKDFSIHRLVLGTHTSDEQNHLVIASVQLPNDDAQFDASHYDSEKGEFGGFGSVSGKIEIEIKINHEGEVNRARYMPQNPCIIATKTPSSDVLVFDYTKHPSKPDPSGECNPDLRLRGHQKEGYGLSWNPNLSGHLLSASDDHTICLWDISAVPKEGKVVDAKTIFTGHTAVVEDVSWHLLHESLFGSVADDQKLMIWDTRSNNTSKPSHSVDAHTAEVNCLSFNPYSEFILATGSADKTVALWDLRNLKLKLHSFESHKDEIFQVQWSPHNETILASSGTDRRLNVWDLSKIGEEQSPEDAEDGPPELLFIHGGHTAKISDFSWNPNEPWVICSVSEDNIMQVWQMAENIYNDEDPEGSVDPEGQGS

SMILES | IC50
Cc1cc(C)c(CNC(=O)c2cc(C3=CCOCC3)cc(C3=CCOCC3)c2C)c(=O)[nH]1 [Example 42, 3,5-di-3,6-dihydro-2H-pyran-4-yl-N-[(4,6-dimethyl-2-oxo-1,2-dihydropyridin-3-yl)methyl]-2-methylbenz-amide] | 1.12 µM
Cc1cc(C)c(CNC(=O)c2nc(N3CCC(N)CC3)nc(-c3ccnn3C)c2C)c(=O)[nH]1 [Example 43, 2-(4-aminopiperidin-1-yl)-N-[(4,6-dimethyl-2-oxo-1,2-dihydropyridin-3-yl)methyl]-5-methyl-6-(1-methyl-1H-pyrazol-5-yl)pyrimidine-4-carboxamide] | 1.34 µM
Cc1cc(C)c(CNC(=O)c2nc(-c3cncnc3)nc(N3CCC[C@@H]3C)c2C)c(=O)[nH]1 [Example 44, N-[(4,6-dimethyl-2-oxo-1,2-dihydropyridin-3-yl)methyl]-5-methyl-6-[(2S)-2-methylpyrrolidin-1-yl]-2,5′-bipyrimidine-4-carboxamide] | 1.41 µM
Cc1cc(C)c(CNC(=O)c2nc(-c3ccc(N)nc3)nc(N3CCC[C@@H]3C)c2C)c(=O)[nH]1 [Example 45, 2-(6-aminopyridin-3-yl)-N-[(4,6-dimethyl-2-oxo-1,2-dihydropyridin-3-yl)methyl]-5-methyl-6-[(2S)-2-methylpyrrolidin-1-yl]pyrimidine-4-carboxamide] | 1.53 µM
Cc1cc(C)c(CNC(=O)c2cc(Cl)cc(-n3nnnc3C)c2C)c(=O)[nH]1 [Example 52, 5-chloro-N-[(4,6-dimethyl-2-oxo-1,2-dihydropyridin-3-yl)methyl]-2-methyl-3-(5-methyl-1H-tetrazol-1-yl)benzamide] | 2.46 µM
Cc1cc(C)c(CNC(=O)c2ncnc(N3CCCC3C(F)(F)F)c2C)c(=O)[nH]1 (stereo not shown) [Example 53, N-[(4,6-dimethyl-2-oxo-1,2-dihydropyridin-3-yl)methyl]-5-methyl-6-[2-(trifluoromethyl)pyrrolidin-1-yl]pyrimidine-4-carboxamide] | 2.52 µM
Cc1cc(C)c(CNC(=O)c2nc(C3CC3)nc(N3CCC[C@@H]3C)c2C)c(=O)[nH]1 [Example 54, 2-cyclopropyl-N-[(4,6-dimethyl-2-oxo-1,2-dihydropyridin-3-yl)methyl]-5-methyl-6-[(2S)-2-methylpyrrolidin-1-yl]pyrimidine-4-carboxamide] | 2.83 µM
Cc1cc(C)c(CNC(=O)c2nc(N3C[C@@H]4C[C@H]3CO4)nc(N3CCC[C@@H]3C)c2C)c(=O)[nH]1 [Example 58, N-[(4,6-dimethyl-2-oxo-1,2-dihydropyridin-3-yl)methyl]-5-methyl-6-[(2S)-2 - methylpyrrolidin-1-yl]-2-[(1S,4S)-2-oxa-5-azabicyclo[2.2.1]hept-5-yl]pyrimidine-4-carboxamide] | 3.52 µM
Cc1cc(C)c(CNC(=O)c2cc(Cl)cc(-n3nccc3C)c2C)c(=O)[nH]1 [Example 63, 5-chloro-N-[(4,6-dimethyl-2-oxo-1,2-dihydropyridin-3-yl)methyl]-2-methyl-3-(5-methyl-1H-pyrazol-1-yl)benzamide] | 4.38 µM
COC1CCN(c2nc(C(=O)NCc3c(C)cc(C)[nH]c3=O)c(C)c(-c3ccnn3C)n2)CC1 [Example 68, N-[(4,6-dimethyl-2-oxo-1,2-dihydropyridin-3-yl)methyl]-2-(4-methoxypiperi-din-1-yl)-5-methyl-6-(1-methyl-1H-pyrazol-5-yl)pyrimidine-4-carboxamide] | 5.19 µM
Cc1cc(C)c(CNC(=O)c2cccc(-c3c(C)nn(C)c3C)c2C)c(=O)[nH]1 [Example 70, N-[(4,6-dimethyl-2-oxo-1,2-dihydropyridin-3-yl)methyl]-2-methyl-3-(1,3,5-trimethyl-1H-pyrazol-4-yl)benzamide] | 5.21 µM
Cc1cc(C)c(CNC(=O)c2ncnc(N3CCC[C@@H]3C)c2C)c(=O)[nH]1 [Example 71, N-[(4,6-dimethyl-2-oxo-1,2-dihydropyridin-3-yl)methyl]-5-methyl-6-[(2S)-2-methylpyrroli-din-1-yl]pyrimidine-4-carboxamide] | 6.33 µM
Cc1cc(C)c(CNC(=O)c2ncnc(N3CCC(C)(C)C3)c2C)c(=O)[nH]1 [Example 73, N-[(4,6-dimethyl-2-oxo-1,2-dihydropyridin-3-yl)methyl]-6-(3,3-dimethylpyrroli-din-1-yl)-5-methylpyrimi-dine-4-carboxamide] | 6.5 µM

The remaining molecules from weak to strong by IC50, led by results:

IC50 | SMILES
6.37 µM | CSc1nc(C(=O)NCc2c(C)cc(C)[nH]c2=O)c(C)c(-c2ccnn2C)n1 [Example 72, N-[(4,6-dimethyl-2-oxo-1,2-dihydropyridin-3-yl)methyl]-5-methyl-6-(1-methyl-1H-pyrazol-5-yl)-2-(methylthio) pyrimidine-4-carboxamide]
5.19 µM | Cc1cc(C)c(CNC(=O)c2ccnc(N3CCC[C@@H]3C)c2Cl)c(=O)[nH]1 [Example 69, 3-chloro-N-[(4,6-dimethyl-2-oxo-1,2-dihydropyridin-3-yl)methyl]-2-[(2S)-2-methylpyrroli-din-1-yl]isonicotinamide]
4.42 µM | Cc1cc(C)c(CNC(=O)c2cccc(-c3c(C)ncnc3C)c2C)c(=O)[nH]1 [Example 64, N-[(4,6-dimethyl-2-oxo-1,2-dihydropyridin-3-yl)methyl]-3-(4,6-dimethylpyrimi-din-5-yl)-2-methylbenz-amide]
4.22 µM | Cc1cc(C)c(CNC(=O)c2cc(Cl)cc(-n3c(C)nnc3C)c2C)c(=O)[nH]1 [Example 62, 5-chloro-N-[(4,6-dimethyl-2-oxo-1,2-dihydropyridin-3-yl)methyl]-3-(3,5-dimethyl-4H-1,2,4-triazol-4-yl)-2-methylbenz-amide]
4.21 µM | CCc1nncn1-c1cc(Cl)cc(C(=O)NCc2c(C)cc(C)[nH]c2=O)c1C [Example 61, 5-chloro-N-[(4,6-dimethyl-2-oxo-1,2-dihydropyridin-3-yl)methyl]-3-(3-ethyl-4H-1,2,4-triazol-4-yl)-2-methylbenz-amide]
3.91 µM | Cc1cc(C)c(CNC(=O)c2ncnc(N3CCCC3(C)C)c2C)c(=O)[nH]1 [Example 59, N-[(4,6-dimethyl-2-oxo-1,2-dihydropyridin-3-yl)methyl]-6-(2,2-dimethylpyrroli-din-1-yl)-5-methylpyrimidine-4-carboxamide]
3.2 µM | Cc1cc(C)c(CNC(=O)c2nc(OC(C)C)nc(N3CCC[C@@H]3C)c2C)c(=O)[nH]1 [Example 57, N-[(4,6-dimethyl-2-oxo-1,2-dihydropyridin-3-yl)methyl]-2-isopropoxy-5-methyl-6-[(2S)-2 - methylpyrrolidin-1-yl]pyrimidine-4-carboxamide]
3.18 µM | Cc1cc(C)c(CNC(=O)c2nc(N3C[C@@H]4[C@@H](N)[C@@H]4C3)nc(-c3ccnn3C)c2C)c(=O)[nH]1 [Example 56, 2-[(1R,5S,6S)-6-amino-3-azabicyclo[3.1.0]hex-3-yl]-N-[(4,6-dimethyl-2-oxo-1,2-dihydropyridin-3-yl)methyl]-5-methyl-6-(1-methyl-1H-pyrazol-5-yl)pyrimidine-4-carboxamide]
2.89 µM | Cc1cc(C)c(CNC(=O)c2nc(N3[C@@H]4CC[C@H]3COC4)nc(N3CCC[C@@H]3C)c2C)c(=O)[nH]1 [Example 55, N-[(4,6-dimethyl-2-oxo-1,2-dihydropyridin-3-yl)methyl]-5-methyl-6-[(2S)-2 - methylpyrrolidin-1-yl]-2-[(1R,5S)-3-oxa-8-azabicyclo[3.2.1]oct-8-yl]pyrimidine-4-carboxamide]
2.11 µM | Cc1cc(C)c(CNC(=O)c2nc(-c3cnc(N(C)C)nc3)nc(-c3ccnn3C)c2C)c(=O)[nH]1 [Example 51, 2′-(dimethylamino)-N-[(4,6-dimethyl-2-oxo-1,2-dihydropyridin-3-yl)methyl]-5-methyl-6-(1-methyl-1H-pyrazol-5-yl)-2 ,5′-bipyrimidine-4-carboxamide]
1.95 µM | Cc1cc(C)c(CNC(=O)c2cc(Cl)cc(-n3ncnc3C)c2C)c(=O)[nH]1 [Example 49, 5-chloro-N-[(4,6-dimethyl-2-oxo-1,2-dihydropyridin-3-yl)methyl]-2-methyl-3-(5-methyl-1H-1,2,4-triazol-1-yl)benzamide]
1.7 µM | CNc1ncc(-c2nc(C(=O)NCc3c(C)cc(C)[nH]c3=O)c(C)c(-c3ccnn3C)n2)cn1 [Example 47, N-[(4,6-dimethyl-2-oxo-1,2-dihydropyridin-3-yl)methyl]-5-methyl-2′-(methylamino)-6-(1-methyl-1H-pyrazol-5-yl)-2,5′-bipyrimidine-4-carboxamide]

— patent US20170152239A1, “BENZAMIDE AND HETEROBENZAMIDE COMPOUNDS” (PFIZER INC., priority 2012, published 2017)
